Earlier results on two compounds are cited in US20100203146A1, “INTERMITTENT DOSING STRATEGY FOR TREATING RHEUMATOID ARTHRITIS” (Callisto Pharmaceuticals, Inc., priority 2009, published 2010).

The test system of one data set is patients with RA. The settings on record: often observed.
For another data set, the system named is RA patients. The following applies: at the administered doses.
Another data set deals with arthritis patients. The settings on record: after a single dosage of 90 mg.
[1] abbreviates: after 14 or 28 days of daily oral dosing.

With `CN(Cc1cnc2nc(N)nc(N)c2n1)c1ccc(C(=O)N[C@@H](CCC(=O)O)C(=O)O)cc1` [Methotrexate], in the data set on patients with RA, the “response (improvement)” value was “less than 50%”.
On to `CCCC1(CCC)CCC2(CCN(CCCN(CC)CC)C2)CC1` [Atiprimod, 2-(3-Diethylaminopropyl)-8,8-dipropyl-2-azaspiro[4,5]decane], for which, under setting [1], the “area under the concentration-time curve (AUC)” value was “lower than expected” and the “maximum concentration (Cmax)” value was “lower than expected”. The half-life (in man) is listed as ~60 days. Also, the dose-limiting toxicity entry in the data set on RA patients is “no observed dose-limiting toxicity”. Further, the tolerability result in the data set on RA patients (on drug for as long as one year) is recorded as “well-tolerated”. Also, the patient-reported relief entry with arthritis patients was “feeling better”.
